Experimental data as given in US8658619B2, “Methods of treating subclinical sun damage” (priority 2010, dated 2014).

Test system: subclinical sun damage
Experiment: Follow-up treatments of one patient on a substantially annual basis
Format: in vivo, human
Settings: each time after the first treatment
Source text: In order to assess the scope of original treatment, one patient received further treatments over a substantially annual basis. In Table 4, treatment #, days since last treatment, and observations are provided. […] From this, it was concluded that all of the subclinical sun damage treated most likely resolved during each cycle of therapy. Subsequent milder reactions appear to have treated new subclinical sun damage or possible recurrent sun damage. […] The freckle also resolved itself after follow-up treatment #1. During follow-up treatment #2, FIG. 4C, there was no sign of the freckle. That is, where there may not have been a response during an earlier treatment, a subsequent treatment invoked a response. Moreover, responses to successive treatments, if any, were not as severe as the initial response. […] It is also concluded that annual treatment aids in preventing actinic keratoses from forming as well as eliminates any new sun damage.

Compound: O=c1[nH]cc(F)c(=O)[nH]1 [5-FU, 5-fluorouracil]
- response in follow-up treatments: mild erythema
